Entries after “also recorded” stand apart in the source; their conditions may differ. Marks after values point to notes of the source that are not given here.
Tests used:
[1] = tested on: DOHH2 human tumor xenograft; test: CAS024 combined with bendamustine in subcutaneous DOHH2 xenografts in SCID mice; format: in vivo; conditions: CAS024 10 μg IV days 0, 4, 8; Bendamustine 10 mg/kg IP days 0, 2, 4, 7, 9
Protocol: Establishment of tumor xenografts and sorting into treatment groups.
Monitoring and endpoints. Mice were monitored daily by visual inspection. […] Tumor volumes were calculated as described above.

[2] = tested on: chronic lymphocytic leukemia (CLL) cells; conditions: in vitro; cited from earlier work
CD37 [3] = target: T1, CD37 (Homo sapiens, UniProt P11049); test: FACS competitive binding / cross blocking of FITC-conjugated anti-CD37 on BJAB cells; conditions: FIGS. 5A-5E
T1 sequence (P11049 1-281): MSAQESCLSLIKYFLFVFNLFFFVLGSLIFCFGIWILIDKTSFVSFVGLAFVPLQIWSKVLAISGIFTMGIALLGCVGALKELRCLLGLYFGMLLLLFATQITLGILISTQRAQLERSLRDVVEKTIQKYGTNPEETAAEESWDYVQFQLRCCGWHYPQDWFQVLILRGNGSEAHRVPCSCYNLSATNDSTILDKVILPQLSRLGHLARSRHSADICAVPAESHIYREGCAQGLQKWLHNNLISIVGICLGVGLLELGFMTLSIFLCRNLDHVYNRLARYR
Protocol: FITC labeled antibody conjugates were titrated from 10 ng/mL to 10 μg/mL in an initial binding study to determine the optimal amount to use in the blocking studies. The level chosen was just below saturating amounts, and was kept constant in the subsequent assays, while levels of blocking antibody were increased over a 10-fold range. Data were plotted as percent of maximal binding versus concentration of blocking antibody, so that higher levels indicate less efficient blocking, while lower levels indicate more efficient blocking activity.
For competitive binding assays, 2.5×10^5 BJAB cells were incubated in 96-well V-bottom plates in staining media (PBS with 2% mouse sera) with the FITC-conjugated anti-CD37 mAbs at 1.25 μg/mL in the presence of unconjugated anti-CD37 MAb at the indicated concentrations (2.5, 1.25, 0.6, or 0.3 μg/ml) or staining media for 45 minutes on ice in the dark. Blocking antibodies and FITC labeled antibody conjugates were added to reactions prior to addition of cells. The cells were then washed […] with PBS and fixed with 1% paraformaldehyde (USB, Cleveland, Ohio). The treated cells were analyzed by flow cytometry using a FACsCalibur instrument and CellQuest software (BD Biosciences, San Jose, Calif.). […]

Rec-1 cells [4] = test: Rec-1 growth inhibition (ATP viable cell detection), combination index with chemotherapeutic agents; format: cell-based, human; conditions: 96 hours
Protocol: Rec-1 cells, a CD37+ human B cell line established from a patient with mantle cell lymphoma, were tested for growth inhibition in response to crosslinked CAS-024 in the presence or absence of doxorubicin, vincristine, or fludarabine (see FIG. 7). CAS-024 was preincubated with anti-human IgG F(ab)′2 to crosslink the protein. Cells were cultured with medium alone or with medium containing various concentrations of the crosslinked CAS-024 protein, in the presence or absence of various concentrations of doxorubicin, vincristine, or fludarabine. Cultures were incubated for 96 hours and growth inhibition was assessed using an ATP viable cell detection system (i.e., viable cells quantified by ATP release).
A numerical value, assigned to each drug combination at predefined dose levels, enabled quantitative drug/drug interaction comparisons between different drug combinations. Results were expressed as combination indices (CI) vs. effect level, in which effect level represented percent inhibition of cell growth. The mean CI±SEM for each effect level was averaged over three experiments. A CI<1.0 was considered synergy, CI=1.0 additivity, and CI>1.0 antagonism.

SU-DHL-6 cells = test: SU-DHL-6 growth inhibition (ATPlite), combination index; format: cell-based, human
Protocol: (§1) The final volume in each well was 150 μL.

CD37 [5] = target: T1, CD37; test: FMAT competition binding assay against labeled CAS-006 on Ramos cells; parameters: CD-37 found on Ramos cells (a B-lymphoblastoid cell line derived from a Burkitt lymphoma); endogenous in cells; host or cells: Ramos cells
Excerpt: A competition assay was used to compare the binding affinity of different anti-CD37 specific small modular immunopharmaceutical (SMIP) molecules to CD-37 found on Ramos cells (a B-lymphoblastoid cell line derived from a Burkitt lymphoma). An SEC purified chimeric anti-CD37 SMIP molecule (CAS-006, SEQ ID NO:247) was labeled with the FMAT Blue® fluorescence dye (Applied Biosystems) and used as the standard to compete with purified unlabeled chimeric anti-CD37 SMIP molecule (positive control) and purified unlabeled humanized anti-CD37 SMIP test molecules. […] The plates were incubated at room temperature for 30 min and read on an 8200 Cellular Detection System (Applied Biosystems) gated for middle cell size and low signal.
A competition assay as described in Example 4 was used to compare the binding affinity of different mouse-human hybrid anti-CD37 SMIP molecules compared to CAS-024 binding to Ramos cells. An SEC purified chimeric anti-CD37 SMIP molecule (CAS-006, SEQ ID NO:247) was labeled with the FMAT Blue® fluorescence dye (Applied Biosystems) and used as the standard to compete with purified unlabeled chimeric anti-CD37 SMIP molecule (CAS-006, positive control) and purified unlabeled humanized anti-CD37 SMIP test molecules—-CAS-002 (SEQ ID NO:48), CAS-003 (SEQ ID NO:52), CAS-014 (SEQ ID NO:251), CAS-017 (SEQ ID NO:252), and CAS-024 (SEQ ID NO:253).

Rec-1 cells [6] = test: Rec-1 growth inhibition (ATPlite), combination index with bendamustine; format: cell-based, human; conditions: crosslinked CAS024 combined with bendamustine; 96 hr
Protocol: as §1

[7] = tested on: DOHH2 human tumor xenograft; test: Dose response in established subcutaneous DOHH2 xenograft model in SCID mice; conditions: days 0, 4, 8
Protocol: The objective of this experiment was to examine the dose response to treatment with CAS-024 in a model of established subcutaneous human tumor (DOHH2) xenograft model in SCID mice.
On day 8 post-tumor inoculation, palpable tumors were apparent in a majority of mice. The tumor-bearing mice were sorted into four groups with equivalent mean tumor volumes (n=14 per group; 2 cages of 5 mice and 1 cage of 4 mice for each group). The day of the sort was defined as day 0. Tumor diameters were determined with a pair of calipers and tumor volumes were calculated using the formula: V=½[length×(width)^2].
Tumor-bearing groups of SCID mice were treated on days 0, 4, and 8 via IP injection of 0.2 mL of PBS containing 200 μg of huIgG (negative control) or 200, 100, 30, 10, or 3 μg of CAS-024. The two lowest dose solutions of CAS-024 were prepared on the day of injection to avoid the need to add a carrier protein to the most dilute solutions.
Dose solutions were prepared in similar volumes and the contents of the tubes were noted on removable labels. An investigator who was not treating or assessing the mice placed a color code on each tube and noted the code and identity of the tube contents in a laboratory notebook. Mice were monitored daily by visual inspection. Weights were determined weekly, and tumor diameters were determined at least 3 times per week (M, W, F) by an observer blinded (see above) to the treatment groups. Tumor volumes were calculated as described above. Mice were euthanized if their tumor volume reached more than 1500 mm^3 (or 1200 mm^3 on Fridays). Death was not an endpoint in the tumor protocols and, unless noted otherwise, “survival” of a mouse was determined by the time it was euthanized due to its tumor volume reaching the predetermined limits.
All statistical analyses were performed using GraphPad Prism software. Significant differences in mean tumor volumes and mean relative tumor volumes were determined using a one-way ANOVA for nonparametric data (Kruskal-Wallis test) with Dunn's multiple comparison post test. To examine differences between each of the CAS-024 treated groups and the huIgG group, all groups were compared. For comparisons between the CAS-024 groups only, the huIgG group was excluded. In addition, the high and middle dose (200, 100, and 30 μg) groups were analyzed as a one data set, and the middle and low dose (30, 10, and 3 μg) groups were analyzed as another data set. Significant differences in survival of mice over time were determined using Kaplan-Meier survival analysis with a log-rank test for comparing survival curves. Significant differences in the incidence of tumor-free mice were determined using Fisher's exact test. p values<0.05 were considered significant.

[8] = tested on: DOHH2 human tumor xenograft; test: CAS-024 and Rituxan as single agents in established DOHH2 xenograft model in SCID mice; format: in vivo; conditions: for Death (other than for Tumor Size Sacrifice) / Median Survival Time: 200 μg IP days 0, 4, 8; for Median Survival Time: cumulative 600 μg; for mean tumor volume compared with human IgG treated group: 200 μg IP, day 4 through day 11
Protocol: The objective of this study was to examine the efficacy of CAS-024 and RITUXAN® (rituximab) as single agents in a model of established human tumor (DOHH2) xenografts in SCID mice.
Mice were monitored daily by visual inspection. […] Tumor volumes were calculated as described above. Tumor volumes on the last day that all mice were alive in each group were also expressed in terms of tumor volumes relative to day 0, using the formula: […]

Cn1c(CCCC(=O)O)nc2cc(N(CCCl)CCCl)ccc21 [Bendamustine, 4-[5-[Bis(2-chloroethyl)amino]-1-methylbenzimidazol-2-yl]butanoic acid, reference compound]
Median Survival Time [1]: 17 days | clinical signs of toxicity [1]: scruffy coats and diarrhea

CAS-006: chimeric anti-CD37 SMIP protein (mVLmVH) with variable regions of mouse mAb G28-1, SEQ ID NO:247
combination effect with fludarabine on killing of CLL cells [2]: acts synergistically | blocking activity (inhibition of binding of FITC-conjugated anti-CD37) (CD37 [3]): highest level of blocking activity

G28-1 VH (M99F, Y102S)—VL (T25A) scFv (SSC-P) H WCH2 WCH3 [CAS-024]
Median Survival Time [1]: 17^b Days | clinical signs of toxicity [1]: No clinical signs of toxicity | combination index (CI) (Rec-1 cells [4]; crosslinked CAS-024 combined with doxorubicin): additive | combination index (CI) (Rec-1 cells [4]; crosslinked CAS-024 combined with fludarabine): < 1.0 | combination index (CI) (Rec-1 cells [4]; crosslinked CAS-024 combined with vincristine): < 1.0 | combination effect on cell growth (CI) (SU-DHL-6 cells; CAS-024 combined with chlorambucil): did not result in synergistic inhibitory effects | combination effect on cell growth (CI) (SU-DHL-6 cells; crosslinked CAS024 combined with bendamustine, 96 hr): synergistically inhibited | greater affinity for CD37 than humanized VLVH anti-CD37 SMIP molecules with 16 amino acid linker (CD37 [5]; FIG. 3): ≤ 4 fold | binding affinity for CD37 compared with parent CAS-006 (CD37 [5]; competition with FMAT Blue labeled CAS-006): substantially the same affinity; also recorded: same binding affinity as CAS-006 | combination effect on target cell growth (CI) (Rec-1 cells [6]): synergistic inhibitory effects | Death (Not Due to Large Tumor Volume) ([7]; 3 μg per IP injection): 0/14 | Median Survival Time ([7]; 3 μg per IP injection, cumulative 9 μg): 19 days | Death (Not Due to Large Tumor Volume) ([7]; 10 μg per IP injection): 0/14 | Median Survival Time ([7]; 10 μg per IP injection, cumulative 30 μg): 28 days | Death (Not Due to Large Tumor Volume) ([7]; 30 μg per IP injection): 0/14 | Median Survival Time ([7]; 30 μg per IP injection, cumulative 90 μg): 35 days | Death (Not Due to Large Tumor Volume) ([7]; 100 μg per IP injection): 1/14^h | Median Survival Time ([7]; 100 μg per IP injection, cumulative 300 μg): Undefined | Death (Not Due to Large Tumor Volume) ([7]; 200 μg per IP injection): 0/14 | Median Survival Time ([7]; 200 μg per IP injection, cumulative 600 μg): Undefined^ef | effect on the growth of DOHH2 tumors ([7]; 3 to 200 μg per IP injection): dose-dependent inhibitory effect | Death (other than for Tumor Size Sacrifice) [8]: 1/15^f | Median Survival Time [8]: Undefined^d,e | mean tumor volume compared with human IgG treated group [8]: significantly lower than that of the human IgG treated group

rituximab [Rituxan ®, reference compound]
Death (other than for Tumor Size Sacrifice) [8]: 0/15 | Median Survival Time [8]: 43 days | mean tumor volume compared with human IgG treated group [8]: significantly lower than that of the human IgG treated group

Reference: US9101609B2, “CD37 immunotherapeutic and combination with bifunctional chemotherapeutic thereof” (EMERGENT PRODUCT DEVELOPMENT SEATTLE, LLC, priority 2008, dated 2015)
